The values that follow come from patent US20230372331A1, “PHARMACEUTICAL COMPOSITION” (ANXO PHARMACEUTICAL CO., LTD., priority 2022, published 2023).

The structures appear in SMILES notation. Where a name gives a salt, the structure may show the parent alone.

A short description of this series: Solubility of cariprazine forms in acetate medium. In kind it is physicochemical. The source says: Different drug solubilities of cariprazine HCl and cariprazine base could be the reason to affect the release of cariprazine in the pharmaceutical compositions. […] The release profile of cariprazine in pharmaceutical composition with combo cariprazine base and cariprazine HCl were between pharmaceutical compositions B-752H-TF8-N and C-752H-TF8-N.

`CN(C)C(=O)N[C@H]1CC[C@H](CCN2CCN(c3cccc(Cl)c3Cl)CC2)CC1` [Cariprazine HCl, cariprazine HCl]: the “solubility in acetate medium (in words)” value was “higher solubility in acetate medium than cariprazine base”.
